Tests used:
[1] = tested on: urinary bladder; assay: Cystometric parameters in conscious rats after oral administration; format: in vivo, rat; settings: 3 mg/kg p.o., 1-5 h after treatment
Protocol: Male Sprague-Dawley rats [Crl: CD® (SD) IGS BR] of 300-400 g body weight supplied by Charles River Italia were used. The animals were housed with free access to food and water and maintained on a forced 12-hour-light/12-hour-dark cycle at 22-24° C. of temperature, except during the experiment. To quantify urodynamic parameters in conscious rats, cystometrographic studies were performed according to the procedure previously reported (Guarneri et al., Pharmacol. Res. 24: 175, 1991).
Briefly, the rats were anaesthetised by intraperitoneal administration of 3 ml/kg of Equithensin solution (pentobarbital 30 mg/kg and chloral hydrate 125 mg/kg) and placed in a supine position. An approximately 10 mm-long midline incision was made in the shaved and cleaned abdominal wall. The urinary bladder was gently freed from adhering tissues, emptied and then cannulated via an incision in the bladder body, using a polyethylene cannula (0.58-mm internal diameter, 0.96-mm external diameter) which was permanently sutured with silk thread. The cannula was exteriorised through a subcutaneous tunnel in the retroscapular area, where it was connected to a plastic adapter in order to avoid the risk of removal by the animal. For drug testing, the rats were utilised one day after implantation.
On the day of the experiment, the rats were placed in modified Bollman cages, i.e., restraining cages that were large enough to permit the rats to adopt a normal crouched posture, but narrow enough to prevent turning around. After a stabilisation period of about 20 minutes, the free tip of the bladder cannula was connected through a T-shaped tube to a pressure transducer (Statham P23XL) and to a peristaltic pump (Gilson minipuls 2) for continues infusion of a warm (37° C.) saline solution into the urinary bladder, at a constant rate of 0.1 ml/minute. The intraluminal-pressure signal during infusion of saline into the bladder was continuously recorded on a polygraph (Rectigraph-8K San-ei with BM614/2 amplifier from Biomedica Mangoni). The cystometrogram was used to evaluate the urodynamic parameters of bladder volume capacity (BVC) and micturition pressure (MP). BVC (ml) is defined as the volume of saline infused into the bladder necessary to induce detrusor contraction followed by micturition. MP (mmHg) is defined as the maximal intravesical pressure caused by contraction during micturition. Basal BVC and MP values were evaluated as mean of the values observed in the cystometrograms recorded in an initial period of 30-60 minutes. Following determination of basal BVC and MP, the infusion was interrupted and the test compounds were administered orally by a stomach tube. Bladder infusion was resumed and changes in BVC and MP were evaluated from the mean values obtained in the cystometrograms observed during 1, 2, 3, 4 and 5 hours after treatment. Compounds were administered in a volume of 2 ml/kg and groups of control animals received the same amount of vehicle (0.5% methocel in water) orally.
Data were expressed as mean ±standard error. The percent changes of BVC and MP versus the basal values, as well as Δ values (difference in ml or mmHg) of BVC and MP (BVC or MP at time “x” minus basal value), were also evaluated for each rat/time. In the figures, data were reported as % changes versus basal values.
Statistical analysis on BVC and MP values, as well as on Δ values, was performed by S.A.S./STAT software, version 6.12. The observed differences between vehicle (control) and test treatments were evaluated on Δ values of BVC and MP, whereas the differences between the values at different times versus basal values were analyzed on original BVC and MP data.

[2] = tested on: rhythmic bladder-voiding contractions; assay: Rhythmic bladder-voiding contractions induced by bladder filling in anaesthetised rats; format: in vivo, rat; settings: intravenous administration
Protocol: Female Sprague-Dawley rats weighing 225-275 g (Crl: CD® (SD) IGS BR, Charles River Italia) were used. The animals were housed with free access to food and water and maintained on a forced 12-hour alternating light-dark cycle at 22-24° C. for at least one week, except during the experiment. The activity on rhythmic bladder voiding contractions was evaluated according to the method of Dray (Dray J., Pharmacol. Methods, 13:157, 1985), with some modifications as in Guarneri (Guarneri, Pharmacol. Res. 27:173, 1993). Briefly, the rats were anaesthetised by subcutaneous injection of 1.25 g/kg (5 ml/kg) urethane, after which the urinary bladder was catheterised via the urethra using PE 50 polyethylene tubing filled with physiological saline. The catheter was tied in place with a ligature around the external urethral orifice and was connected to conventional pressure transducers (Statham P23 ID/P23 XL). […] The bladder was then filled via the recording catheter by incremental volumes of warm (37° C.) saline until reflex bladder-voiding contractions occurred (usually 0.8-1.5 ml). For intravenous injection of bioactive compounds, PE 50 polyethylene tubing filled with physiological saline was inserted into the jugular vein.
From the cystometrogram, the number of contractions recorded 15 minutes before (basal values) and after treatment, as well as the mean amplitude of these contractions (mean height of the peaks in mmHg), was evaluated.
Since most compounds produced an effect that was relatively rapid in onset and led to a complete cessation of bladder contractions, bioactivity was conveniently estimated by measuring the duration of bladder quiescence (i.e., the time during which no contractions occurred). The number of tested animals showing a reduction in the number of contractions higher than 30% of that observed in the basal period was recorded too.
The extrapolated doses which induced a reduction in the number of contractions greater than 30% in 50% of the treated rats (ED50) were also evaluated by the method of Bliss (Bliss C. I., Quart J. Pharm. Pharmacol. 11, 192-216, 1938).

Row | SMILES | bladder volume capacity (BVC) [1] | micturition pressure (MP) [1] | ED50 (frequency) (extrapolated dose inducing a reduction of the number of contractions >30% in 50% of treated rats) [2] | ED10 min (extrapolated dose inducing 10 minutes of disappearance of the contractions) [2]
1 | COc1ccccc1N1CCN(CCC(c2ccccc2F)C(C2CCCCC2)N(C)C(C)=O)CC1 (racemic) [Example 16, (RS,SR)- and (RS,RS)-N-{-1-Cyclohexyl-2-(2-fluorophenyl)-4-[4-(2-methoxyphenyl)piperazin-1-yl]butyl}-N-methylacetamide] | effective in increasing | without significant effects | 0.031 mg/kg | 0.072 mg/kg
2 | COc1ccccc1N1CCN(CC[C@@H](c2ccccc2F)[C@H](NC(=S)N(C)C)C2CCCCC2)CC1 (racemic) [Example 24, 3-{(RS,SR)-1-Cyclohexyl-2-(2-fluorophenyl)-4-[4-(2-methoxyphenyl)-piperazin-1-yl]butyl}-1,1-dimethylthiourea] | significantly increased | slight but significant reduction |  | 

Source: patent US20070270436A1, “NOVEL AMINO- AND IMINO-ALKYLPIPERAZINES” (Recordati Ireland Limited, priority 2006, published 2007)
